Data on three compounds can be found in US20150079673A1, “HEPATOCYTES IN CO-CULTURE AND USES THEREOF” (Colorado State University Research Foundation, priority 2013, published 2015).

Type in all cases: cell-based
Experiment [1] deals with human hepatocytes maintained in micropatterned co-culture with 3T3-J2 murine embryonic fibroblasts. The experiment is described as follows: Gluconeogenesis (glucose production) in glycogen-depleted MPCC. As to conditions: at 24 hours, following a varying dose of metformin; FIG. 9B.
Description: To test for gluconeogenesis in diabetic hepatocytes in co-culture, the MPCC hepatocyte cultures comprising diabetic versus non-diabetic cells were subjected to glucose-free medium for 24-48 hours, thereby depleting the resident glycogen stores so that cells were only able to perform gluconeogenesis in the presence of the glucose precursors lactate and pyruvate. Gluconeogenesis rate was measured by incubating glycogen-depleted cultures with the substrates pyruvate and lactate, in glucose-free medium and glucose measurement in medium (Amplex Red) at 24 hours, thereby isolating the contribution of gluconeogenesis to glucose production, from potential residual glucose output due to glycogen depletion.
Cells were also tested under the glycogen depletion conditions as described above, for the effect of hormones on glucose production. The MPCCs were subjected to glycogen depletion for 12 hours, followed by stimulation of gluconeogenesis using lactate or pyruvate, in the presence or absence of insulin, glucagon or dexamethasone. Released glucose was measured 24 hours later.
Experiment [2] shares this test system. The experiment can be described thus: Glycogen lysis in MPCC, PAS stain of intracellular glycogen. Particulars: glucose free medium + 100 nm hormone, 24 hrs after treatment; FIG. 11A. On the procedure:
(§1) Glycogen lysis and glycogen synthesis in MPCC hepatocytes was also studied. The rate of glycogen lysis in MPCCs was measured by incubating cultures with glucose-free/hormone-free medium for 48 hours (fasting), followed by fixation of cultures using 4% paraformaldehyde and staining of intracellular glycogen (periodic acid Schiff stain (“PAS stain”)). The rate of glycogen synthesis was measured by first depleting glycogen stores as described above, followed by addition of glucose to medium (feeding) and staining of glycogen at specific time-points. Results at 24 hours are shown in FIGS. 11A-B. FIG. 11A is a panel of four photomicrographs of human hepatocytes maintained in micropatterned co-culture with 3T3-J2 murine embryonic fibroblasts, indicating glycogenolysis in the cells under four conditions: 25 mM glucose, glucose free, glucose free+100 nm glucagon, and glucose free+100 nm insulin, 24 hrs after treatment. […] MPCCs were cultured in glucose free media for 2 days and depleted of all glycogen prior to the addition of 5 mM glucose. […]

The test system is the same in experiment [3]. The experiment can be described thus: Glycogen synthesis in MPCC, PAS stain of intracellular glycogen. Particulars: glycogen-depleted, 5 mM glucose + 100 nm hormone, 24 hours after treatment; FIG. 11B. On the procedure:
as §1

Take `CN(C)C(=N)N=C(N)N` [metformin]: in experiment [1], the “glucose production (gluconeogenesis)” value is “dose-dependent blockage”.
Take insulin: in experiment [2], the “glycogenolysis (intracellular glycogen, PAS stain)” value is on record as “continued storing glycogen”. The “glycogen synthesis (intracellular glycogen, PAS stain)” value in experiment [3] is on record as “at a higher rate when stimulated by insulin”.
For the compound glucagon, the “glycogenolysis (intracellular glycogen, PAS stain)” value in experiment [2] is recorded as “at a higher rate when stimulated by glucagon”. Further, the “glycogen synthesis (intracellular glycogen, PAS stain)” value in experiment [3] was “did not synthesize glycogen”.
